How the values were obtained:
Assay type in all cases: biochemical
[1] = target: T1, hMeprin β (Homo sapiens, UniProt Q16820); test: Enzymatic assay, quenched peptide substrate cleavage, method A; conditions: geometric mean (geometric SD factor in parentheses), read-out: Meprin beta IC50
T1 sequence (Q16820 62-701): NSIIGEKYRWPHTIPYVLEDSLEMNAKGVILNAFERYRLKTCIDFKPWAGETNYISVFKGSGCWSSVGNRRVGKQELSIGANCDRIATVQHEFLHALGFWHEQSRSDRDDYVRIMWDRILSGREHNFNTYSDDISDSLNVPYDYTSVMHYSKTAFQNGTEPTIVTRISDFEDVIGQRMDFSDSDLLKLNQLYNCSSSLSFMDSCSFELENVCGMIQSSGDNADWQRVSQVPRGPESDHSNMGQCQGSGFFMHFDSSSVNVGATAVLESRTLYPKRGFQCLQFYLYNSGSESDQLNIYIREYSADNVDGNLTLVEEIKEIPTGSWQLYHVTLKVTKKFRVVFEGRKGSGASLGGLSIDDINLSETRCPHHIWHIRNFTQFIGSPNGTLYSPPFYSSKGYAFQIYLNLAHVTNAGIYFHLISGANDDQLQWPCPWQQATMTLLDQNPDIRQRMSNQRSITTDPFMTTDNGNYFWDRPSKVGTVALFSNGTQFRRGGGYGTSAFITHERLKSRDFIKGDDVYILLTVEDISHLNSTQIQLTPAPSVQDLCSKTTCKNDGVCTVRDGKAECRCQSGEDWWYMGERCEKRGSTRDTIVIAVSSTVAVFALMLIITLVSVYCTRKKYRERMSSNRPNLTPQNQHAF
Description: (§1) The determination of enzymatic activity was based on the cleavage of internally quenched peptide substrates. A typical assay of 250 μl total volume measured in black 96 well plates consisted of 100 μl buffer, 50 μl enzyme at a final concentration of 5e-8 M to 2e-10 M, 50 μl substrate (0.15 to 80 μM, in buffer, 0.5% DMSO) and 50 μl inhibitor solution (in buffer, 1% DMSO). In case of 125 μl assay volume (black 96 half area well plates) all volumes were cut in half. Enzymatic activity of ADAMs was measured in 384 well plates with 60 μl total assay volume consisting of 20 μl inhibitor, 20 μl buffer, 10 μl enzyme and 10 μl substrate.
(§2) Based on method B Ki^(app) values were determined using Morrison's equation. All measurements were performed using a fluorescence plate reader (FLUOSTAR OPTIMA, BMG Labtech) at 30° C. The kinetic parameters were determined at least in duplicates on separate days. The excitation/emission wavelength was 340/420 nm. The kinetic data was evaluated using GRAFIT software (version 7.0.3, Erithacus Software).

[2] = target: T2, hMeprin α (Homo sapiens, UniProt Q16819); test: as above; conditions: geometric mean (geometric SD factor in parentheses), read-out: Meprin alpha IC50
T2 sequence (Q16819 66-746): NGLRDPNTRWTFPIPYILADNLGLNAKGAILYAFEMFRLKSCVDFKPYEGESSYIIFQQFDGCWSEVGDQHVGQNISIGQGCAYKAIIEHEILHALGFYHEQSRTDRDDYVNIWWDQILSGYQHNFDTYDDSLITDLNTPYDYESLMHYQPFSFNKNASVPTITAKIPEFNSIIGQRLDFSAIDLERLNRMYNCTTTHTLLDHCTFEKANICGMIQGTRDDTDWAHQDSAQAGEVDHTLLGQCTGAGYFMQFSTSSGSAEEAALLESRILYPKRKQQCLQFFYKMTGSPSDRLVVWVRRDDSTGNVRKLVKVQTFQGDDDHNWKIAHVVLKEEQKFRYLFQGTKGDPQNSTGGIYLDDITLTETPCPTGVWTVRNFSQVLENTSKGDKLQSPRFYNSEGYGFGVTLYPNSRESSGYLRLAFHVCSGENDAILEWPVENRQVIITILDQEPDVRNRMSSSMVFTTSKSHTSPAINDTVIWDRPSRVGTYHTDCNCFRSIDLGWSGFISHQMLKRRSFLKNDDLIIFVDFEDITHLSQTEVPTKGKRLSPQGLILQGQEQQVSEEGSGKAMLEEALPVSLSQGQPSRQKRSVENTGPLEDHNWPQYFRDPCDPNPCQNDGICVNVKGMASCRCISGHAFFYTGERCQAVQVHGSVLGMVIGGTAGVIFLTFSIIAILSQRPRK
Description: as §1, §2

[3] = target: T3, hADAM 17 (Homo sapiens, UniProt P78536); test: Residual enzyme activity of other metalloproteases; conditions: read-out: Residual enzyme activity ADAM17
T3 construct: purchased R&D systems
Description: as §1

[4] = target: T4, hADAM 10 (Homo sapiens, UniProt O14672); test: Residual enzyme activity of other metalloproteases; conditions: read-out: Residual enzyme activity ADAM10
T4 construct: purchased R&D systems
T4 sequence (O14672 214-748): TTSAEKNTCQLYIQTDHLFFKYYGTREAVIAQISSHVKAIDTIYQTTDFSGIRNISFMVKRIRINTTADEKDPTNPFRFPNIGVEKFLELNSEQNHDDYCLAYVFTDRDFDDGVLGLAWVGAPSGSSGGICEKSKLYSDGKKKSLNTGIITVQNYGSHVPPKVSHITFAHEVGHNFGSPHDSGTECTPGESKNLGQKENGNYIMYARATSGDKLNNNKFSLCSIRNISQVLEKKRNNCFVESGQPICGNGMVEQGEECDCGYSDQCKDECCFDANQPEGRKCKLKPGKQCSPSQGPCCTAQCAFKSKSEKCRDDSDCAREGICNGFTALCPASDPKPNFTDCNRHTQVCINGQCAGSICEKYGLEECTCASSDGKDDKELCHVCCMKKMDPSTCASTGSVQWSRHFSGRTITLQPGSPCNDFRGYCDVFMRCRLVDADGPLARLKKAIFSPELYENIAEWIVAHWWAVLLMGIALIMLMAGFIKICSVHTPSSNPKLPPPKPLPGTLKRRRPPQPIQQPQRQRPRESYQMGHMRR
Description: as §1

[5] = target: T5, hMMP 9 (Homo sapiens, UniProt P14780); test: Residual enzyme activity of other metalloproteases; conditions: read-out: Residual enzyme activity MMP9
T5 construct: purchased R&D systems
Description: as §1
MMPs were activated prior to measurement by APMA (p-aminophenylmercuric acetate) treatment according to manufacturer's instructions (R&D systems).

[6] = target: T1, hMeprin β; test: Enzymatic assay, quenched peptide substrate cleavage, method B; conditions: geometric mean (geometric SD factor in parentheses); for Ki: Morrison's equation, read-out: Meprin beta Ki(app); for IC50: read-out: Meprin beta IC50
Description: as §1, §2

[7] = target: T2, hMeprin α; test: as above; conditions: geometric mean (geometric SD factor in parentheses); for Ki: Morrison's equation, read-out: Meprin alpha Ki(app); for IC50: read-out: Meprin alpha IC50
Description: as §1, §2

T3 sequence (P78536 215-824): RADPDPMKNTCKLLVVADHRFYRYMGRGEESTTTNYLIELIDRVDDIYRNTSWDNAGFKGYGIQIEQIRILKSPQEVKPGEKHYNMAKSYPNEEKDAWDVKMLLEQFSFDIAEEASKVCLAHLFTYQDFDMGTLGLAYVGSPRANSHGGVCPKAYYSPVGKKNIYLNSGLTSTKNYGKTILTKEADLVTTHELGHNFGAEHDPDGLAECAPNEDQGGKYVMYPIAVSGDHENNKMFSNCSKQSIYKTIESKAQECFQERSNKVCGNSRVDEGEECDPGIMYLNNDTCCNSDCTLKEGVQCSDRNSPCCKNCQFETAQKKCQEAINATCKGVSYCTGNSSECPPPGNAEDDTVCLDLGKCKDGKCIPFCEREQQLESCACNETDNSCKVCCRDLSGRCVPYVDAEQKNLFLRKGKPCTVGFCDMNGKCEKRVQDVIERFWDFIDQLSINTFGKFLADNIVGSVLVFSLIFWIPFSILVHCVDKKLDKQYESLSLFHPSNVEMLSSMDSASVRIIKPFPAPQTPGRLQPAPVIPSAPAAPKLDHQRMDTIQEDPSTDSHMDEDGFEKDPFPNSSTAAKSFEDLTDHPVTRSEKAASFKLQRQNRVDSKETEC
T5 sequence (P14780 107-707 limits assumed): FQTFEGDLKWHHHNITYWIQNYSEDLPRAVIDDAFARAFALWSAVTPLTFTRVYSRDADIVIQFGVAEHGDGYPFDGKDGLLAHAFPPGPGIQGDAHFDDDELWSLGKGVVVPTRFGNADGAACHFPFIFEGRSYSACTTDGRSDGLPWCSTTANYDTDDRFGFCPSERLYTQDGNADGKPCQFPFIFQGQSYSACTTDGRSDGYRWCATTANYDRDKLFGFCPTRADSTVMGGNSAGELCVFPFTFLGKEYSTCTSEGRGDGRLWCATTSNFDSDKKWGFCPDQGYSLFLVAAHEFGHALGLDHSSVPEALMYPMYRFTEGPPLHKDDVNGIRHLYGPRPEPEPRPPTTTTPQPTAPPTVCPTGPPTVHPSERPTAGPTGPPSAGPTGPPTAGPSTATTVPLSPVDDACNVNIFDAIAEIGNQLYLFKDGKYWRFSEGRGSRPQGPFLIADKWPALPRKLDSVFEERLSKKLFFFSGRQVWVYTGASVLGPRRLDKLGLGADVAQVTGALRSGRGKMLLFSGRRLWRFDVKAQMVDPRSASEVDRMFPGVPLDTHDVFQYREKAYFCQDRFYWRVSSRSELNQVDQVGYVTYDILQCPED

Row | Compound | Ki [6] [nM] | IC50 [6] [nM] | Ki [7] [nM] | IC50 [7] [nM] | also measured
1 | O=C(Cn1nc(-c2ccccc2)cc1-c1ccccc1)NO [Example 5, 2-(3,5-Diphenylpyrazol-1-yl)ethanehydroxamic acid] | – | – | – | – | IC50 [1]: 10500 nM; IC50 [2]: 292 nM
2 | O=C(CCn1nc(-c2ccccc2)cc1-c1ccccc1)NO [Example 6, 3-(3,5-Diphenylpyrazol-1-yl)propanehydroxamic acid] | – | – | – | – | IC50 [1]: 15400 nM; IC50 [2]: 457 nM
3 | O=C(CCn1c(-c2ccccc2)nnc1-c1ccccc1)NO [Example 8, 3-(3,5-Diphenyl-1,2,4-triazol-4-yl)propanehydroxamic acid] | – | – | – | – | IC50 [1]: 42300 nM; IC50 [2]: 353 nM
4 | O=C(CCn1c(-c2ccccc2)ccc1-c1ccccc1)NO [Example 10, 3-(2,5-Diphenylpyrrol-1-yl)propanehydroxamic acid] | – | – | – | – | IC50 [1]: 15000 nM; IC50 [2]: 727 nM
5 | O=C(Cc1c(-c2ccc3c(c2)OCO3)n[nH]c1-c1ccc2c(c1)OCO2)NO [Example 57, 2-[3,5-Bis(1,3-benzodioxol-5-yl)-1H-pyrazol-4-yl]ethanehydroxamic acid] | 113 | 119 | 0.64 | 0.72 | remaining activity at 10 µM ([3]; 10 μM inhibitor): 57%; remaining activity at 200 µM ([3]; 200 μM inhibitor): 4%; remaining activity at 10 µM ([4]; 10 μM inhibitor): 62%; remaining activity at 200 µM ([4]; 200 μM inhibitor): 0%; remaining activity at 10 µM ([5]; 10 μM inhibitor): 63%; remaining activity at 200 µM ([5]; 200 μM inhibitor): 10%
6 | O=C(Cc1c(-c2ccc(C(=O)O)cc2)n[nH]c1-c1cccc(C(=O)O)c1)NO [Example 66, 3-[3-(4-Carboxyphenyl)-4-[2-(hydroxyamino)-2-oxo-ethyl]-1H-pyrazol-5-yl]benzoic acid] | 32 | 32 | 20 | 21 | –
7 | O=C(NO)C1c2ccccc2-c2[nH]nc(-c3ccccc3)c21 (stereo not shown) [Example 67, 3-Phenyl-1,4-dihydroindeno[1,2-c]pyrazole-4-carbohydroxamic acid] | 1680 | 1790 | 39 | 40 | –
8 | O=C(NO)C1Cc2ccccc2-c2[nH]nc(-c3ccccc3)c21 (stereo not shown) [Example 68, 3-Phenyl-4,5-dihydro-1H-benzo[g]indazole-4-carbohydroxamic acid] | 2530 | 2600 | 61 | 62 | –
9 | O=C(Cc1c(-c2cc(O)no2)n[nH]c1-c1ccccc1)NO [Example 69, 2-[3-(3-Hydroxyisoxazol-5-yl)-5-phenyl-1H-pyrazol-4-yl]ethanehydroxamic acid] | 14 | 14 | 16 | 17 | –
10 | O=C(Cc1c(-c2c[nH]nc2C(F)(F)F)n[nH]c1-c1ccccc1)NO [Example 70, 2-[5-Phenyl-3-[3-(trifluoromethyl)-1H-pyrazol-4-yl]-1H-pyrazol-4-yl]ethanehydroxamic acid] | 88 | 89 | 2 | 2 | –
11 | O=C(Cc1c(-c2cccc(-c3nnn[nH]3)c2)n[nH]c1-c1ccccc1)NO [Example 71, 2-[5-Phenyl-3-[3-(1H-tetrazol-5-yl)phenyl]-1H-pyrazol-4-yl]ethanehydroxamic acid] | 7 | 7 | 0.71 | 0.71 | –
12 | O=C(CCc1c(-c2ccccc2)nn(Cc2ccc(Cl)c(O)c2F)c1-c1ccccc1)NO [Example 72, 3-[1-[(4-chloro-2-fluoro-3-hydroxy-phenyl)methyl]-3,5-diphenyl-pyrazol-4-yl]propanehydroxamic acid] | 1180 | 1210 | 0.15 | 0.22 | –
13 | O=C(Cc1c([C@@H]2CCCC[C@@H]2C(=O)O)n[nH]c1-c1ccccc1)NO [Example 73, (1S,2R)-2-[4-[2-(Hydroxyamino)-2-oxoethyl]-5-phenyl-1H-pyrazol-3-yl]cyclohexanecarboxylic acid] | 33 | 33 | 0.26 | 0.34 | –
14 | O=C(Cc1c(C2CCCC(C(=O)O)C2)n[nH]c1-c1ccccc1)NO (stereo not shown) [Example 74, 3-[4-[2-(Hydroxyamino)-2-oxo-ethyl]-5-phenyl-1H-pyrazol-3-yl]cyclohexanecarboxylic acid] | 55 | 55 | 1 | 1 | –
15 | O=C(Cc1c(-c2ccccc2)[nH]nc1[C@H]1CC[C@@H](C(=O)O)CC1)NO [Example 75, cis-4-[4-[2-(Hydroxyamino)-2-oxo-ethyl)-5-phenyl-1H-pyrazol-3-yl]cyclohexanecarboxylic acid] | 35 | 35 | 10 | 10 | –
16 | O=C(Cc1c(-c2ccccc2)[nH]nc1[C@H]1CC[C@H](C(=O)O)CC1)NO [Example 76, trans-4-[4-[2-(Hydroxyamino)-2-oxo-ethyl]-5-phenyl-1H-pyrazol-3-yl]cyclohexanecarboxylic acid] | 98 | 98 | 12 | 12 | –
17 | O=C(Cc1c(-c2cccc(C(=O)O)c2)[nH]nc1[C@H]1CC[C@@H](C(=O)O)CC1)NO [Example 77, cis-3-[3-(4-carboxycyclohexyl)-4-[2-(hydroxyamino)-2-oxo-ethyl]-1H-pyrazol-5-yl]benzoic acid] | 15 | 15 | 23 | 24 | –
18 | O=C(Cc1c(-c2cccc(C(=O)O)c2)[nH]nc1[C@H]1CC[C@H](C(=O)O)CC1)NO [Example 78, trans-3-[3-(4-Carboxycyclohexyl)-4-[2-(hydroxyamino)-2-oxo-ethyl]-1H-pyrazol-5-yl]benzoic acid] | 21 | 21 | 20 | 20 | –
